Reference: ChEMBL document CHEMBL1909046, “DrugMatrix in vitro pharmacology data”
pIC50, pKi: −log10 of the molar value.

What was measured:
D(3) dopamine receptor = D(3) dopamine receptor (Homo sapiens, UniProt P35462); test: DRUGMATRIX: Dopamine D3 radioligand binding (ligand: [3H] Spiperone); format: cell membranes, CHO, Membrane; details: for IC50: cho
[1] = target: T1, 5-hydroxytryptamine receptor 2C (Homo sapiens, UniProt P28335); test: DRUGMATRIX: Serotonin (5-Hydroxytryptamine) 5-HT2C radioligand binding (ligand: [3H] Mesulergine); format: cell membranes, CHO-K1, Membrane; details: cho-k1; Not Active = under 50% inhibition at 10 µM
T1 sequence (P28335 whole entry): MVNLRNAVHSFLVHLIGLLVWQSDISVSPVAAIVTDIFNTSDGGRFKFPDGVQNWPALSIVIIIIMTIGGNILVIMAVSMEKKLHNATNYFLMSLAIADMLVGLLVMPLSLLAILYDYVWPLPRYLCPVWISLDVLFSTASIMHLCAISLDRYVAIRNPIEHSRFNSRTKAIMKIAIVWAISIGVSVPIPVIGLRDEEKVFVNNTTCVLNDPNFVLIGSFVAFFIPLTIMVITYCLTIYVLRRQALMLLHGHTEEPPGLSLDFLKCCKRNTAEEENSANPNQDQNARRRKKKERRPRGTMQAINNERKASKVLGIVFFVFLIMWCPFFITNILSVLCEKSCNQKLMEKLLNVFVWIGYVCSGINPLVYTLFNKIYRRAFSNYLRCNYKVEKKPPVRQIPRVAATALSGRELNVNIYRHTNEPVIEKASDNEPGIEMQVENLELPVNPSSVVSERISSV

[2] = DRUGMATRIX: Calcium Channel Type L, Benzothiazepine radioligand binding (ligand: [3H] Diltiazem); format: cell membranes, Rattus norvegicus, Wistar, Brain, Membrane; details: Not Active = under 50% inhibition at 10 µM
[3] = target: Kappa-type opioid receptor (Homo sapiens, UniProt P41145); test: DRUGMATRIX: Opiate kappa (OP2, KOP) radioligand binding (ligand: [3H] Diprenorphine); format: cell membranes, HEK293, Membrane; details: hek293; Not Active = under 50% inhibition at 10 µM
Chain of Kappa-type opioid receptor (P41145 whole entry): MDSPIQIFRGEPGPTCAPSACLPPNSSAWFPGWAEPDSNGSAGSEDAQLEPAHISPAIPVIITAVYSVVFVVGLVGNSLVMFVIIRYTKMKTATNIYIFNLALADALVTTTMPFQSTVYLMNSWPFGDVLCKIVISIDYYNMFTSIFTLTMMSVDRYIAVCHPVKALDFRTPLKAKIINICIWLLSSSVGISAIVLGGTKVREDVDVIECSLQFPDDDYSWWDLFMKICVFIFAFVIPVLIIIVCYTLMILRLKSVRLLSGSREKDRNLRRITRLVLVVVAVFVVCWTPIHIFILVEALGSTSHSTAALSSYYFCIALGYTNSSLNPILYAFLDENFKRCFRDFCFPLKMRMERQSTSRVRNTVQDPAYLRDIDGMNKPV

[4] = target: Vascular endothelial growth factor receptor 1 (Homo sapiens, UniProt P17948); format: cell-based; details: huvec; note: in other assays of this panel Not Active means under 50% inhibition at 10 µM
Chain of Vascular endothelial growth factor receptor 1 (P17948 whole entry): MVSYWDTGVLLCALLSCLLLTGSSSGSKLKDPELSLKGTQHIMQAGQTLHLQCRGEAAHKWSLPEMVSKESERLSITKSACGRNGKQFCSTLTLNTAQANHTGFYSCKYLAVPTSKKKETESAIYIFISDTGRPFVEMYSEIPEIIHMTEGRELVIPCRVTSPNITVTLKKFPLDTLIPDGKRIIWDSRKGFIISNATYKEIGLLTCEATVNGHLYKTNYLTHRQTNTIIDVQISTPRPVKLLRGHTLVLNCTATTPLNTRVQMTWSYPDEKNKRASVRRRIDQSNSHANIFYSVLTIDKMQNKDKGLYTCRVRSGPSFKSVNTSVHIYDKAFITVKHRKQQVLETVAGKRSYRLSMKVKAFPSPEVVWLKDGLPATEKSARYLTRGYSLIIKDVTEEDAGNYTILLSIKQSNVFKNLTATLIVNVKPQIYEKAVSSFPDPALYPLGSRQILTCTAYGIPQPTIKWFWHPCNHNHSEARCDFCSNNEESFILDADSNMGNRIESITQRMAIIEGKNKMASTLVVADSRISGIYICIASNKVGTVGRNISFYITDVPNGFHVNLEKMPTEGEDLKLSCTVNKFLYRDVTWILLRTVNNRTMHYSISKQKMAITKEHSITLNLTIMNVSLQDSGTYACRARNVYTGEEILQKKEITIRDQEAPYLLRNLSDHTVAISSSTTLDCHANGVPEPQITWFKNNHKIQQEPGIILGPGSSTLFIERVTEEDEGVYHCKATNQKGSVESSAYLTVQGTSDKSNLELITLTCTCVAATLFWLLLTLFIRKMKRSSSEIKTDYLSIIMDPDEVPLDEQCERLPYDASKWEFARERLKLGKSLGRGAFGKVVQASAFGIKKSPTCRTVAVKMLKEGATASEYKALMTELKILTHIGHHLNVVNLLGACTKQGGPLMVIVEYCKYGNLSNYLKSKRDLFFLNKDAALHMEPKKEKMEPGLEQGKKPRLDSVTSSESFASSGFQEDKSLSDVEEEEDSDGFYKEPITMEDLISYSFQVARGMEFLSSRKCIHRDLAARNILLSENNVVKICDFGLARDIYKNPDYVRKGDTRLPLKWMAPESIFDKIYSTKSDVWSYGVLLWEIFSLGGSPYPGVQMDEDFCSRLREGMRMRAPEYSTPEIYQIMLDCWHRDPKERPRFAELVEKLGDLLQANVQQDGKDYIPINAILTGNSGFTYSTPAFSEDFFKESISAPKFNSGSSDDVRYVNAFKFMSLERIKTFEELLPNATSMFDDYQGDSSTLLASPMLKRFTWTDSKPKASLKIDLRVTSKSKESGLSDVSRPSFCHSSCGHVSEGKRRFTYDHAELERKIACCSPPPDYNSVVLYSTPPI

[5] = target: Platelet-activating factor receptor (Homo sapiens, UniProt P25105); format: tissue-based; note: in other assays of this panel Not Active means under 50% inhibition at 10 µM
Chain of Platelet-activating factor receptor (P25105 whole entry): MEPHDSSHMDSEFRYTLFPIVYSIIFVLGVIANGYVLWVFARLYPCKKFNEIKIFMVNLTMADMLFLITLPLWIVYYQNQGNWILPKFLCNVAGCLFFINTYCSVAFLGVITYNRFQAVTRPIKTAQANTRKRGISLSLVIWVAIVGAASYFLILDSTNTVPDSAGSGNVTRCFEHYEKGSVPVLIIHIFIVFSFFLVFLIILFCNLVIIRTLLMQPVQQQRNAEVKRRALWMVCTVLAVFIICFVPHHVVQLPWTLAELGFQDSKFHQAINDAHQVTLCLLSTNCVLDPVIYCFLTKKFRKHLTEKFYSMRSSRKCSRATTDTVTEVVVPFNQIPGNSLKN

Chain of D(3) dopamine receptor (P35462 whole entry): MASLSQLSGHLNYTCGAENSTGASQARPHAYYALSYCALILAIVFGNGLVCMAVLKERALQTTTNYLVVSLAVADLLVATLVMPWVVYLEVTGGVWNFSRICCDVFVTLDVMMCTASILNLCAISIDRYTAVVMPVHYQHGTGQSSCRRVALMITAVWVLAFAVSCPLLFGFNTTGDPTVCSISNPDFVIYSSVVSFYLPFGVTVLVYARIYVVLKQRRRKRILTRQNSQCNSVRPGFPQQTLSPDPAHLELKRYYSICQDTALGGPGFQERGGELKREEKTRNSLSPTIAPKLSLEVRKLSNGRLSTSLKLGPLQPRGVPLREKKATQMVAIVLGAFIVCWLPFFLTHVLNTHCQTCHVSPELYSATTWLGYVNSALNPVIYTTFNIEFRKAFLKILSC

SMILES | IC50 (D(3) dopamine receptor) | IC50 [1] | IC50 [2] | Ki [2] | IC50 [3] | IC50 [4] | IC50 [5] | pIC50 (D(3) dopamine receptor; read-out: IC50) | pKi (D(3) dopamine receptor; read-out: Ki) | pIC50 ([2]; read-out: IC50) | pKi ([2]; read-out: Ki)
CCc1ccc(CCOc2ccc(CC3SC(=O)NC3=O)cc2)nc1 (stereo not given) [PIOGLITAZONE] | Not Active | Not Active | Not Active | Not Active | Not Active | Not Active | Not Active |  |  |  | 
CCCNC(C)C(=O)Nc1ccccc1C (stereo not given) [PRILOCAINE] | Not Active | Not Active | Not Active | Not Active | Not Active | Not Active | Not Active |  |  |  | 
CCN(CC)CCNC(=O)c1ccc(N)cc1 [PROCAINAMIDE] | Not Active | Not Active | Not Active | Not Active | Not Active | Not Active | Not Active |  |  |  | 
CCN(CC)CCCC(C)Nc1c2ccc(Cl)cc2nc2ccc(OC)cc12 (stereo not given) [QUINACRINE] |  | Not Active |  |  | Not Active | Not Active | Not Active | 5.88 | 6.35 | 5.97 | 6.02
C[C@]12C=CC(=O)C=C1CC[C@H]1[C@@H]3C[C@@H](O)[C@](O)(C(=O)CO)[C@@]3(C)C[C@H](O)[C@@]12F [TRIAMCINOLONE] | Not Active | Not Active | Not Active | Not Active | Not Active | Not Active | Not Active |  |  |  | 
CC[C@]1(O)C[C@@H]2CN(CCc3c([nH]c4ccccc34)[C@@](C(=O)OC)(c3cc4c(cc3OC)N(C)[C@H]3[C@@](O)(C(N)=O)[C@H](O)[C@]5(CC)C=CCN6CC[C@]43[C@@H]65)C2)C1 [VINDESINE] | Not Active | Not Active | Not Active | Not Active | Not Active | Not Active | Not Active |  |  |  | 
CCN(C(C)=O)c1cccc(-c2ccnc3c(C#N)cnn23)c1 [ZALEPLON] | Not Active | Not Active | Not Active | Not Active | Not Active | Not Active | Not Active |  |  |  | 
